Values quoted from earlier work as cited in patent publication US20050244465A1, “Drug delivery systems and methods for treatment of an eye” (Allergan, Inc., priority 2004, published 2005).

Conditions: efficacy in vivo; 25 mg hydrocortisone equivalent to 1 mg dexamethasone

C[C@]12CCC(=O)C=C1CC[C@@H]1[C@@H]2[C@@H](O)C[C@@]2(C)[C@H]1CC[C@]2(O)C(=O)CO [hydrocortisone]
potency relative to dexamethasone: approximately twentyfivefold less potent than dexamethasone
